In patent US5504097A, “N-hydroxyureas as 5-lipoxygenase inhibitors and inhibitors of oxidative modification of low density lipoprotein” (American Home Products Corporation, priority 1995, dated 1996) one finds IC50 data, which are given here for 1 compound.

The experiment deals with Low Density Lipoprotein. As to the kind of experiment: Inhibition of Copper Ion Mediated Oxidation of Low Density Lipoprotein. Type of experiment: biochemical. Conditions: Cu^+2 mediated oxidation of rabbit or monkey LDL. The method, then:
5. Inhibition of Copper Ion Mediated Oxidation of Low Density Lipoprotein
In this in vitro assay, the inhibition of Cu^+2 mediated oxidation of rabbit or monkey LDL by an invention compound is determined spectrophotometricallly. Oxidation of LDL results in the formation of LDL-diene which absorbs light at 532 nm. Inhibition of oxidation of LDL leads to a decrease in absorbance at 532 nm.
Rabbit or monkey LDL is prepared according to the procedures of Havel, Eder and Gragdon, "The Distribution and Chemical Composition of Ultracentrifugally Separated Lipoproteins in Human Serum,: J, Clin. Invest. 34, 1345-1353 (1955) and Parhtasarathy, Wieland and Steriberg, "A Role for Endothelial Cell Lipoxygenase in the Oxidative Modification of Low Density Lipoprotein," Proc, Natl. Acad. Sci. USA 86, 1046-1050 (1989). Test compound solutions are prepared by dissolving the invention compounds in ethanol at concentrations up to 248 μM. The medium used is Dulbecco's phosphate buffered saline containing 0.5 mg/ml bovine serum albumin. For standards, 0 to 10 μl of an aqueous solution of 1,1,3,3-tetraethoxypropane (1 μmol/ml H2 O) in 4.1 ml of medium is used.
Test compound solution (100 μl) is added to 4 ml of medium in incubation tubes. To each tube is added 10 μl of LDL solution and 25 μl of aqueous copper sulfate solution (1.32 mg/ml H2 O ). The tubes are incubated at 37° C. for 90 minutes and the oxidation reaction quenched by addition of 1 ml of thiobarbituric acid solution (0.67% in 50% acetic acid). The tubes are heated at 90° C. for 1 hour, then chilled in an ice bath and the chromophore extracted into 2 ml of n-butanol. Absorbence is read at 532 nm and the results are reported as nmols of malondialdehyde equivalents.
Significant differences (p<0.05) are determined by the Dunnett T-test or by the Student-Newman-Keuls Test for significant differences between means. The assay is conducted using several concentrations I! of the inhibitor test compounds. The LDL solution concentrations at different experiments were either 1.5 mg/ml, 2.5 mg/ml or 10.3 mg/ml. The IC50 is determined by non-linear regression, plotting log I! vs. % inhibition. (Reference: K. Yagi, Biochemical Medicine 15, 212-216 (1976)).

As for `Cc1oc(-c2ccccc2)nc1COc1ccc(CN(O)C(N)=O)cc1` [Example 1, 1-Hydroxy-1-4-(5-methyl-2-phenyl-oxazol-4-ylmethoxy)-benzyl!-urea], the IC50 (commonly the concentration that inhibits the measured activity by half) is 1.1 µM.
